Experimental data as given in patent US7732602B2, “Herbicide composition” (Sumitomo Chemical Company, Limited, priority 2001, dated 2010).
Counter-ions that a name gives are not always drawn.

How the values were obtained:
Type in all cases: in vivo
cotton = assay: Phytotoxicity to cotton sown immediately after treatment (Test Example 1); design: key: “no” when almost no phytotoxicity was observed; “low” when a low level phytotoxicity was observed; “medium” when a medium level phytotoxicity was observed; “high” when a high level phytotoxicity was observed; conditions: 14 days after treatment
Experimental: (§1) Evaluation of phytotoxicity against a crop was shown by “no” when almost no phytotoxicity was observed, “low” when a low level phytotoxicity was observed, “medium” when a medium level phytotoxicity was observed and “high” when a high level phytotoxicity was observed.
(§2) A plastic pot of 11 cm in diameter and 8 cm in depth was filled with field soil. A tuber of yellow nutsedge was buried and grown in a greenhouse for 28 days.
(§3) An emulsion of Compound A-1 was prepared by sufficiently mixing 5 parts of Compound A-1, 6 parts of Sorpol 3005X (surfactant, produced by Toho Chemical) and 89 parts of xylene.
(§4) Each of • (a) single use of an emulsion of Compound A-1, • (b) single use of a solution of Glyphosate isopropylamine salt (commercial name: Roundup, produced by Nippon Monsanto, containing 41% of Glyphosate isopropylamine salt), • (c) single use of a solution of Gltfosinate-Ammonium (commercial name: Basta, produced by Hoechst Schering AgrEvo GmbH, containing 18.5% of Glufosinate-Ammonium), • (d) a mixed composition of an emulsion of Compound A-1 and a solution of Glyphosate isopropylamine salt, and • (e) a mixed composition of an emulsion of Compound A-1 and a solution of Glufosinate-Ammonium were diluted with water containing 1% Agri-dex (produced by Helena). Respective dilutions were uniformly sprayed from upper side onto foliages of yellow nutsedge grown as described above with a small sprayer such that the amounts of the active ingredients were the amounts shown in Table 4. Immediately after the treatment with the test compounds, seeds of corn, soybean and cotton were sown.
(§5) After the treatment, they were raised in a greenhouse for 5 days and the effect against weeds was evaluated. In addition, after 14 days of the treatment, the phytotoxicity to corn, soybean and cotton was evaluated.

corn = assay: Phytotoxicity to corn sown immediately after treatment (Test Example 1); design: key: “no” when almost no phytotoxicity was observed; “low” when a low level phytotoxicity was observed; “medium” when a medium level phytotoxicity was observed; “high” when a high level phytotoxicity was observed; conditions: 14 days after treatment
Experimental: as §1, §2, §3, §4, §5

soybean = assay: Phytotoxicity to soybean sown immediately after treatment (Test Example 1); design: key: “no” when almost no phytotoxicity was observed; “low” when a low level phytotoxicity was observed; “medium” when a medium level phytotoxicity was observed; “high” when a high level phytotoxicity was observed; conditions: 14 days after treatment
Experimental: as §1, §2, §3, §4, §5

yellow nutsedge = assay: Herbicide effect, foliar spray on yellow nutsedge grown in pots (Test Example 1); design: key: a level was taken “0” when completely or almost no difference was observed between the growth behavior of a test weed at the time of observation and that of untreated weed; a level was taken “10” when a test weed completely died or the growth of that was completely inhibited; conditions: 5 days after treatment, levels 0-10
Experimental: as §1, §2, §3, §4, §5

Row | SMILES | Phytotoxicity Ct (cotton; 100 g/ha) | Phytotoxicity Ct (cotton; 500 g/ha) | Phytotoxicity Cr (corn; 100 g/ha) | Phytotoxicity Cr (corn; 500 g/ha) | Phytotoxicity Be (soybean; 100 g/ha) | Phytotoxicity Be (soybean; 500 g/ha) | Herbicide Effect (yellow nutsedge; 100 g/ha) | Herbicide Effect (yellow nutsedge; 500 g/ha) | Phytotoxicity Ct (cotton; 200 g/ha) | Phytotoxicity Ct (cotton; 1000 g/ha) | Phytotoxicity Cr (corn; 200 g/ha) | Phytotoxicity Cr (corn; 1000 g/ha) | Phytotoxicity Be (soybean; 200 g/ha) | Phytotoxicity Be (soybean; 1000 g/ha) | Herbicide Effect (yellow nutsedge; 200 g/ha) | Herbicide Effect (yellow nutsedge; 1000 g/ha)
1 | CP(=O)(O)CCC(N)C(=O)O.N (racemic) [Glufosinate-Ammonium, ammonium DL-homoalanin-4-yl(methyl)phosphinate] | no | no | no | no | no | no | 0 | 2 |  |  |  |  |  |  |  | 
2 | O=C(O)CNCP(=O)(O)O [Glyphosate Isopropylamine Salt, N-(phosphonomethyl)glycine] |  |  |  |  |  |  |  |  | no | no | no | no | no | no | 0 | 0
